Source: ChEMBL document CHEMBL5143608, “Peptide-based long-acting co-agonists of GLP-1 and cholecystokinin 1 receptors as novel anti-diabesity agents” (Eur J Med Chem, 2022)
Activity calls are given as the source filed them. The calls are words filed in the database; no cut-off is given here. Where a SMILES comes first, the peptide text is derived from it. [ ]: non-standard residue; d: D form. Aib = CC(C)(N)C(=O)O

Assays:
[1] = biological target: T1, Cholecystokinin receptor type A (Homo sapiens, UniProt P32238); assay: Agonist activity at human CCK1R expressed in HEK293 cells assessed as ERK1/2 phosphorylation incubated for 5 mins by AlphaScreen assay; type: functional, cell-based; details: hek293
T1 sequence (P32238 whole entry): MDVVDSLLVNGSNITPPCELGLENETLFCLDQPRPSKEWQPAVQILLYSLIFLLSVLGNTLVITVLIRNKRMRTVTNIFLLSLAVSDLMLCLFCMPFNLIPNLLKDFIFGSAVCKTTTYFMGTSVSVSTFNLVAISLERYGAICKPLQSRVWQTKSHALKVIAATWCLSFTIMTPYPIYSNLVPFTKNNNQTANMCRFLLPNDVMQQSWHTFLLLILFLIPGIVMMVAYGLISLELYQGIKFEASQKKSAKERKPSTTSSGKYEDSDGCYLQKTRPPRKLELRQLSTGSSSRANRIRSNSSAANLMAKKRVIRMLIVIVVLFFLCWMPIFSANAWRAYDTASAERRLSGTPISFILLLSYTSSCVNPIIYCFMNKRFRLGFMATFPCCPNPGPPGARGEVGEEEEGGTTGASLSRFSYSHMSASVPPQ

[2] = test system: Mus musculus; assay: Hypoglycemic activity in ICR mouse assessed as improvement in glucose tolerance at 25 nmol/kg, ip administered 30 min before oral glucose administration and measured upto 120 mins by OGTT; type: functional, organism-based
[3] = test system: Mus musculus; assay: Anorectic activity in ICR mouse assessed as decrease in food intake at 25 nmol/kg, ip and measured after 24 hrs; type: functional, organism-based
[4] = biological target: T2, CCK2R (gastrin/cholecystokinin type B receptor) (Homo sapiens, UniProt P32239); assay: Agonist activity at human CCK2R expressed in HEK293 cells assessed as ERK1/2 phosphorylation incubated for 5 mins by AlphaScreen assay; type: functional, cell-based; details: human, HEK293 cells expressing human CCK2R
T2 sequence (P32239 whole entry): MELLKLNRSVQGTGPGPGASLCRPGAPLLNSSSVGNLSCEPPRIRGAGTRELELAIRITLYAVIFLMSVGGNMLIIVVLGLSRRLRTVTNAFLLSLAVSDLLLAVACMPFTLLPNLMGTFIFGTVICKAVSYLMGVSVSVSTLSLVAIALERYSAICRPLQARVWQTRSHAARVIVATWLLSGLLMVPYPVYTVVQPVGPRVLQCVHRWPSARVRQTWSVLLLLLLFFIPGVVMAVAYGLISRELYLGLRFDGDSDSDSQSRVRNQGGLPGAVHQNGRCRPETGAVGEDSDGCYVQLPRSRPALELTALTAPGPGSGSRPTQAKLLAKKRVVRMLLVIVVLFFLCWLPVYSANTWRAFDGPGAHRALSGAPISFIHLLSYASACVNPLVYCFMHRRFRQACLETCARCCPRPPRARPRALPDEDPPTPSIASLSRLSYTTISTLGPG

[5] = biological target: Glucagon-like peptide 1 receptor (Homo sapiens, UniProt P43220); assay: Agonist activity at human GLP-1R expressed in HEK293 cells assessed as cAMP release incubated for 20 min by HTRF analysis; type: functional, cell-based
[6] = test system: Mus musculus; assay: Anorectic activity in ICR mouse assessed as decrease in food intake at 25 nmol/kg, ip and measured after 9 hrs; type: functional, organism-based

Sequence of Glucagon-like peptide 1 receptor (P43220 whole entry): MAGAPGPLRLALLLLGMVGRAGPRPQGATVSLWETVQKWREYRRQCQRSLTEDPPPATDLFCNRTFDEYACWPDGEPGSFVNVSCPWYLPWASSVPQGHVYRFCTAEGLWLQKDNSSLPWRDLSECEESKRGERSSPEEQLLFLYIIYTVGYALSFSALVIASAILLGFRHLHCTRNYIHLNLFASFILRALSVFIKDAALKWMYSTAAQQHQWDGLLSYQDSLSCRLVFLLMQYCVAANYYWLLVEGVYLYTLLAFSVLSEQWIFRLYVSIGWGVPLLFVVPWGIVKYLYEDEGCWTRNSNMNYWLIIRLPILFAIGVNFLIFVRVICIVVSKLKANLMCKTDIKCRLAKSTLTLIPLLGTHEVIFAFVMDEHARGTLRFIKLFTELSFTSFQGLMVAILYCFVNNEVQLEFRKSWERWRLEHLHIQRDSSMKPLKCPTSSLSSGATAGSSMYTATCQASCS

Row | SMILES | EC50 [1] [nM] | EC50 ([5]; hek293) [nM] | EC50 [5] [nM] | Activity [2] | Activity [3] | EC50 at 5 min [4] [nM] | Activity [6]
1 | CCCC[C@H](NC(=O)[C@H](Cc1ccc(CS(=O)(=O)O)cc1)NC(=O)[C@H](CC(=O)O)NC(=O)COCCOCCNC(=O)COCCOCCNC(=O)[C@H](CCCCN)NC(=O)CNC(=O)[C@H](CCCCNC(=O)COCCOCCNC(=O)COCCOCCNC(=O)CC[C@H](NC(=O)CCCCCCCCCCCCCCCCC(=O)O)C(=O)O)NC(=O)[C@@H](NC(=O)[C@H](CC(C)C)NC(=O)[C@H](Cc1c[nH]c2ccccc12)NC(=O)[C@H](CCC(=O)O)NC(=O)[C@@H](NC(=O)[C@H](Cc1ccccc1)NC(=O)[C@H](CCC(=O)O)NC(=O)[C@H](CCCCN)NC(=O)[C@H](C)NC(=O)[C@H](C)NC(=O)[C@H](CCC(=O)O)NC(=O)[C@H](CCC(=O)O)NC(=O)[C@H](CCC(=O)O)NC(=O)[C@H](CC(C)C)NC(=O)[C@@H](NC(=O)[C@H](CCC(=O)O)NC(=O)[C@@H](NC(=O)[C@@H](NC(=O)[C@H](CC(=O)O)NC(=O)[C@H](CC(N)=O)NC(=O)[C@@H](NC(=O)[C@H](Cc1ccc(O)cc1)NC(=O)[C@@H](NC(=O)CNC(=O)[C@H](CCC(=O)O)NC(=O)C(C)(C)NC(=O)[C@@H](N)Cc1cnc[nH]1)[C@@H](C)O)[C@@H](C)O)C(C)C)[C@@H](C)O)[C@@H](C)O)[C@@H](C)CC)[C@@H](C)CC)C(=O)NCC(=O)N[C@@H](Cc1c[nH]c2ccccc12)C(=O)N[C@@H](CCCC)C(=O)N(C)[C@H](CC(=O)O)C(=O)N(C)[C@@H](Cc1ccccc1)C(N)=O | 1.03 | 0.31 | – | Active | Active | > 100 | Active
2 | CC[C@H](C)[C@H](NC(=O)[C@H](CC(C)C)NC(=O)[C@H](Cc1c[nH]c2ccccc12)NC(=O)[C@H](CCC(=O)O)NC(=O)[C@@H](NC(=O)[C@H](Cc1ccccc1)NC(=O)[C@H](CCC(=O)O)NC(=O)[C@H](CCCCN)NC(=O)[C@H](C)NC(=O)[C@H](C)NC(=O)[C@H](CCC(=O)O)NC(=O)[C@H](CCC(=O)O)NC(=O)[C@H](CCC(=O)O)NC(=O)[C@H](CC(C)C)NC(=O)[C@@H](NC(=O)[C@H](CCC(=O)O)NC(=O)[C@@H](NC(=O)[C@@H](NC(=O)[C@H](CC(=O)O)NC(=O)[C@H](CC(N)=O)NC(=O)[C@@H](NC(=O)[C@H](Cc1ccc(O)cc1)NC(=O)[C@@H](NC(=O)CNC(=O)[C@H](CCC(=O)O)NC(=O)C(C)(C)NC(=O)[C@@H](N)Cc1cnc[nH]1)[C@@H](C)O)[C@@H](C)O)C(C)C)[C@@H](C)O)[C@@H](C)O)[C@@H](C)CC)C(=O)N[C@@H](CCCCN)C(=O)NCC(=O)N[C@@H](CCCCN)C(N)=O (H-H[Aib]EGTYTNDVTETLEEEAAKEFIEWLIKGK-NH2) | – | – | 0.056 | – | – | – | –
3 | CCCC[C@H](NC(=O)[C@H](Cc1ccc(CS(=O)(=O)O)cc1)NC(=O)[C@H](CC(=O)O)NC(=O)COCCOCCNC(=O)COCCOCCNC(=O)[C@H](CCCNC(=N)N)NC(=O)CNC(=O)[C@H](CCCCN)NC(=O)[C@@H](NC(=O)[C@H](CC(C)C)NC(=O)[C@H](Cc1c[nH]c2ccccc12)NC(=O)[C@H](C)NC(=O)[C@@H](NC(=O)[C@H](Cc1ccccc1)NC(=O)[C@H](CCC(=O)O)NC(=O)[C@H](CCCCN)NC(=O)[C@H](C)NC(=O)[C@H](C)NC(=O)[C@H](CCC(N)=O)NC(=O)CNC(=O)[C@H](CCC(=O)O)NC(=O)[C@H](CC(C)C)NC(=O)[C@H](Cc1ccc(O)cc1)NC(=O)[C@H](CO)NC(=O)[C@H](CO)NC(=O)[C@@H](NC(=O)[C@H](CC(=O)O)NC(=O)[C@H](CO)NC(=O)[C@@H](NC(=O)[C@H](Cc1ccccc1)NC(=O)[C@@H](NC(=O)CNC(=O)[C@H](CCC(=O)O)NC(=O)[C@H](C)NC(=O)[C@@H](N)Cc1cnc[nH]1)[C@@H](C)O)[C@@H](C)O)C(C)C)[C@@H](C)CC)C(C)C)C(=O)NCC(=O)N[C@@H](Cc1c[nH]c2ccccc12)C(=O)N[C@@H](CCCC)C(=O)N(C)[C@H](CC(=O)O)C(=O)N(C)[C@@H](Cc1ccccc1)C(N)=O | 1.14 | – | – | Active | Active | > 100 | Active

Further lines, with some results ahead:

Row | EC50 [1] [nM] | EC50 ([5]; hek293) [nM] | EC50 [5] [nM] | SMILES | Activity [2] | Activity [3] | EC50 at 5 min [4] [nM] | Activity [6]
4 | 1.19 | – | – | CCCC[C@H](NC(=O)[C@H](Cc1ccc(CS(=O)(=O)O)cc1)NC(=O)[C@H](CC(=O)O)NC(=O)COCCOCCNC(=O)COCCOCCNC(=O)[C@H](CCCNC(=N)N)NC(=O)CNC(=O)[C@H](CCCCNC(=O)COCCOCCNC(=O)COCCOCCNC(=O)CC[C@H](NC(=O)CCCCCCCCCCCCCCCCC(=O)O)C(=O)O)NC(=O)[C@@H](NC(=O)[C@H](CC(C)C)NC(=O)[C@H](Cc1c[nH]c2ccccc12)NC(=O)[C@H](C)NC(=O)[C@@H](NC(=O)[C@H](Cc1ccccc1)NC(=O)[C@H](CCC(=O)O)NC(=O)[C@H](CCCCN)NC(=O)[C@H](C)NC(=O)[C@H](C)NC(=O)[C@H](CCC(N)=O)NC(=O)CNC(=O)[C@H](CCC(=O)O)NC(=O)[C@H](CC(C)C)NC(=O)[C@H](Cc1ccc(O)cc1)NC(=O)[C@H](CO)NC(=O)[C@H](CO)NC(=O)[C@@H](NC(=O)[C@H](CC(=O)O)NC(=O)[C@H](CO)NC(=O)[C@@H](NC(=O)[C@H](Cc1ccccc1)NC(=O)[C@@H](NC(=O)CNC(=O)[C@H](CCC(=O)O)NC(=O)[C@H](C)NC(=O)[C@@H](N)Cc1cnc[nH]1)[C@@H](C)O)[C@@H](C)O)C(C)C)[C@@H](C)CC)C(C)C)C(=O)NCC(=O)N[C@@H](Cc1c[nH]c2ccccc12)C(=O)N[C@@H](CCCC)C(=O)N(C)[C@H](CC(=O)O)C(=O)N(C)[C@@H](Cc1ccccc1)C(N)=O | – | Active | > 100 | Active
5 | 0.95 | 0.092 | – | CCCC[C@H](NC(=O)[C@H](Cc1ccc(CS(=O)(=O)O)cc1)NC(=O)[C@H](CC(=O)O)NC(=O)COCCOCCNC(=O)COCCOCCNC(=O)[C@H](CCCCN)NC(=O)CNC(=O)[C@H](CCCCN)NC(=O)[C@@H](NC(=O)[C@H](CC(C)C)NC(=O)[C@H](Cc1c[nH]c2ccccc12)NC(=O)[C@H](CCC(=O)O)NC(=O)[C@@H](NC(=O)[C@H](Cc1ccccc1)NC(=O)[C@H](CCC(=O)O)NC(=O)[C@H](CCCCN)NC(=O)[C@H](C)NC(=O)[C@H](C)NC(=O)[C@H](CCC(=O)O)NC(=O)[C@H](CCC(=O)O)NC(=O)[C@H](CCC(=O)O)NC(=O)[C@H](CC(C)C)NC(=O)[C@@H](NC(=O)[C@H](CCC(=O)O)NC(=O)[C@@H](NC(=O)[C@@H](NC(=O)[C@H](CC(=O)O)NC(=O)[C@H](CC(N)=O)NC(=O)[C@@H](NC(=O)[C@H](Cc1ccc(O)cc1)NC(=O)[C@@H](NC(=O)CNC(=O)[C@H](CCC(=O)O)NC(=O)C(C)(C)NC(=O)[C@@H](N)Cc1cnc[nH]1)[C@@H](C)O)[C@@H](C)O)C(C)C)[C@@H](C)O)[C@@H](C)O)[C@@H](C)CC)[C@@H](C)CC)C(=O)NCC(=O)N[C@@H](Cc1c[nH]c2ccccc12)C(=O)N[C@@H](CCCC)C(=O)N(C)[C@H](CC(=O)O)C(=O)N(C)[C@@H](Cc1ccccc1)C(N)=O | Active | Active | > 100 | Active
